Assay: gradient 5% acetonitrile 3 min, to 50% in 2 min, to 85% in 15 min, held 3 min, 100 µL/min
Conditions: column: Zorbax Extend-C18 2.1 x 50 mm; eluents: water / acetonitrile, 0.1% formic acid
Method in brief: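 Retention time was recorded from adduct peaks, which were picked computationally and each inspected manually. Pure standards ran in mixtures of ~100 molecules on HPLC coupled to a quadrupole time-of-flight mass spectrometer, in positive and negative ionization mode, through a Zorbax Extend-C18 column (2.1 × 50 mm, 1.8 μm) at 100 μL/min. Eluents were water and acetonitrile, each with 0.1% formic acid.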

Row | Structure (SMILES) | RP-LC retention time [s]
1 | Oc1ccc(Nc2nc(-c3ccccc3)cs2)cc1 | 818
2 | CC(C(=O)N1CCOCC1)C1CCN(C(=O)c2ccc3nc(-c4ccccc4)oc3c2)CC1 (stereo unspecified) | 718
3 | CSc1ccccc1NC(=O)c1cc2ncc(Br)cn2n1 | 1020
4 | CCc1nc(-c2ccc(-c3noc(CNS(=O)(=O)c4ccccc4)n3)cc2)cs1 | 1020
5 | CN1c2cc(F)ccc2C(=O)NC12CCN(C(=O)c1ccccc1F)CC2 | 751
6 | Cc1c(Cl)cccc1S(=O)(=O)N1CCC(C(=O)NCc2csc(-c3cccs3)n2)CC1 | 1020
7 | CC(C)CN1C(=O)c2cccn2CC1C(=O)NCc1ccc2c(c1)OCO2 (stereo unspecified) | 676
8 | Cc1ccc(CNC(=O)C2CCN(S(=O)(=O)c3ccc(-c4noc(C5CC5)n4)cc3)CC2)o1 | 938
9 | COc1ccccc1NC(=O)Nc1cc(C(C)C)ccc1C | 1160
10 | CCc1ccc(NC(=O)C2CCN(S(=O)(=O)c3cn(C(C)C)cn3)CC2)cc1 | 840
11 | CC(=O)NC(C)c1nc(-c2ccc(C(C)(C)C)cc2)no1 (stereo unspecified) | 901
12 | CC1CCN(C(=O)c2cc3c(s2)CCC(C(=O)NCCCN2CCOCC2)C3)CC1 (stereo unspecified) | 542
13 | CCc1nc(-n2cccc2)sc1C(=O)Nc1ccc(Cl)cc1 | 1180
14 | Cn1c(C(=O)NCCCN2CCCC2=O)cc2c(-c3cccs3)nn(-c3ccccc3)c21 | 831
15 | O=c1ccc(-c2ccccc2)nn1CCc1nc(-c2cccc(Cl)c2)no1 | 1030
16 | CN(CC1(C)CCOCC1)S(=O)(=O)c1cccc(C(F)(F)F)c1 | 980
17 | COc1ccc(-c2noc(CN3CCN(c4ccccc4)CC3)n2)cc1OC | 846
18 | Cc1ccc(-c2nnc(-c3nc(N4CCOCC4)c4ccccc4n3)o2)cc1 | 945
19 | Cc1csc(-c2cc(S(=O)(=O)N3CCCC3)cn2CC(=O)N2CCCC2)n1 | 803
20 | O=C(Cn1nc2ccc(C(=O)NCc3ccccc3)cn2c1=O)NC1CCCC1 | 702
21 | CCC(C)(C)C(=O)NC1CCN(c2cnn(CC3CC3)c(=O)c2)CC1 | 664
22 | Cc1ccc(-c2nc(NC(=O)c3cc(C)on3)sc2C)c(C)c1 | 1120

Row | Structure (SMILES) | RP-LC retention time [s]
23 | COc1ccc(Cl)cc1S(=O)(=O)N1CCC(C(=O)NCCCOC(C)C)CC1 | 804
24 | O=C(NCCc1cccs1)C1CCN(C(=O)c2ncn3c2COC(c2ccc(Cl)cc2)C3)CC1 (stereo unspecified) | 808
25 | CN1C(=O)c2cc(C(=O)NCc3ccccc3Cl)nn2CC1(C)C(=O)NC1CCCCC1 (stereo unspecified) | 839
26 | CCOCC(=O)N1CC(c2nc(-c3ccccc3)no2)C2(CCOCC2)C1 (stereo unspecified) | 766
27 | O=C1NC(C(=O)NCc2ccco2)Cn2cccc21 (stereo unspecified) | 605
28 | CCN(c1ccccc1F)S(=O)(=O)c1cc2n(c1)CCCN(C)C2=O | 780
29 | O=C(Cn1cnc2c(sc3nc(-c4ccccc4)ccc32)c1=O)Nc1cc(F)ccc1F | 1040
30 | CNS(=O)(=O)c1cc(-c2nnc(-c3ccc(OC)c(OC)c3)o2)ccc1C | 779
31 | Cc1[nH]c(=O)[nH]c(=O)c1CCc1nnc(SCC(=O)c2ccc3c(c2)NC(=O)CO3)o1 | 589
32 | COc1ccc(-c2c(C)noc2NC(C)=O)cc1S(=O)(=O)Nc1ccc(F)c(Cl)c1 | 803
33 | COC[C@@H]1CN(Cc2cc(C)nn2C)C[C@H]1c1ccccn1 | 559
34 | Cc1cc(C)n(-c2nc(C)c(C(=O)N(CCO)Cc3ccccc3)s2)n1 | 859
35 | COCc1nc2cccnc2n1C1CCN(C(=O)Nc2ccccc2)CC1 | 680
36 | CC(=O)Nc1ccc(NC(=O)c2ccc3noc(-c4ccc(Cl)cc4)c3c2)cc1 | 817
37 | Cn1c(N2CCCN(C(=O)c3ccc(F)c(F)c3)CC2)cc(=O)n(C)c1=O | 660
38 | CCOC(=O)c1nc(SC)n(C)c1C(=O)OCC | 834
39 | CCOC(=O)C1CCCN(C(=O)Cc2c(C(=O)O)c(C)cn2CC)C1 (stereo unspecified) | 727
40 | COc1ccc(-c2nnc(-c3cccnc3NCCCN3CCCC3=O)o2)cc1 | 746
41 | Cc1cccc(Cn2nc(-c3nc(C(C)(C)C)no3)ccc2=O)c1 | 1110
42 | CCc1ccc(CN2C(=O)CN(S(C)(=O)=O)CC2(C)C(=O)NCc2ccc(C)cc2)cc1 (stereo unspecified) | 963
43 | COc1ccc(F)cc1S(=O)(=O)NCCOc1ccc(-c2ccco2)nn1 | 742
44 | CN1CCN(C(CNS(=O)(=O)c2cc(F)ccc2F)c2cccn2C)CC1 (stereo unspecified) | 580

Row | Structure (SMILES) | RP-LC retention time [s]
45 | Cc1ccc(C(CNC(=O)c2cc(-c3ccccc3)on2)N(C)C)o1 (stereo unspecified) | 683
46 | Cc1ccc(C)c(N2CCN(C(=O)C3CCCN(c4ncnc5c4nc4n5CCCCC4)C3)CC2)c1 (stereo unspecified) | 1050
47 | CCCn1c(=O)sc2cc(S(=O)(=O)N3CCC(C(=O)N(CC)CC)CC3)ccc21 | 881
48 | CN(C)c1ccc(-c2noc(C3CC(=O)N(c4ccc5c(c4)OCCO5)C3)n2)cc1 (stereo unspecified) | 920
49 | CC(=O)Nc1ccc(NC(=O)COc2cc(C)nc(-c3ccc(C(F)(F)F)cc3)n2)cc1 | 887
50 | CNc1nc(N2CCCCCC2)nc(-n2cnc(SC)n2)n1 | 685
51 | CC(NC(=O)C1CCN(C(=O)c2ncn3c2COC(c2ccccc2)C3)CC1)c1ccccc1 (stereo unspecified) | 754
52 | Cc1sc2ncnc(N3CCCC(C)C3)c2c1C(=O)Nc1cc(F)ccc1F (stereo unspecified) | 1220
53 | Nc1nc(Nc2ccccc2F)nc2cccc(F)c12 | 615
54 | CCN1CCC(O)(/C=C/c2ccc(C)cc2)C(C(=O)/C=C/c2ccc(C)cc2)C1 (stereo unspecified) | 767
55 | CC(C)N1CCN(Cc2ccc(C(=O)N3CCN(C4CCCCC4)CC3)cc2)C(=O)C1=O | 839
56 | CCOC(=O)CCNC(=O)NCc1nnnn1-c1ccc(C)c(C)c1 | 663
57 | CC1(O)CCOC2(CCN(Cc3ccccc3OC(F)(F)F)CC2)C1 (stereo unspecified) | 632
58 | COC(=O)c1ccc(CSc2nnc(-c3cn(C)nc3OC)n2C)cc1 | 641
59 | Cc1cc(SCC(=O)Nc2nc(-c3ccccc3)cs2)nc(C)n1 | 841
60 | Cc1c(Cl)cccc1NC(=O)N1CCCC(Cn2cnc3cccnc32)C1 (stereo unspecified) | 747
61 | Cc1ccc(-c2coc(-c3ccc(NC(=O)NCCc4ccccc4)cc3)n2)c(C)c1 | 1260
62 | CN1C(=O)[C@H]2CN(Cc3cc(F)ccc3F)C[C@H]2C1=O | 602
63 | Cc1cccc(-n2c(=O)c3c(cc(C)n3C)n(CC(=O)Nc3ccccc3F)c2=O)c1 | 836
64 | Cc1sc(NC(=O)c2cccc(Cn3cc(Br)cn3)c2)nc1-c1ccccc1 | 1190
65 | CC(C)OC(=O)Cn1nc(-c2nc(-c3cccc(Cl)c3)no2)ccc1=O | 1100
66 | CCCCc1ccc(Nc2ncccc2S(N)(=O)=O)cc1 | 1060

Reference: the METLIN SMRT retention time set (Domingo-Almenara et al. 2019)
